The record followed here is patent US12037345B2, “Heterobicyclic compounds for inhibiting the activity of SHP2” (TAIHO PHARMACEUTICAL CO., LTD., priority 2018, dated 2024).

Each structure is given as a SMILES string. Where a name gives a salt, the structure may show the parent alone. Read-outs that look alike come from different tables or passages of the source.

Test [1] deals with SHP2 (Homo sapiens (Human), UniProt Q06124). Briefly: SHP2 Biochemical Assay (DiFMUP conversion, pIRS1-activated). The procedure, abridged:
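Human SHP2 (10 pM) pre-incubated 30 min with compound and […] pIRS1 activating peptide, then 50 μM DiFMUP added; buffer 25 mM Bis-Tris propane pH 7.0, 150 mM NaCl, 5% DMSO. Fluorescence rate (ex 360/em 450 nm) over 30 min; IC50 by four-parameter fit, averaged across experiments.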

Test [2] has as its system pERK (phospho-p44/42 ERK) in HCC827 cells. Briefly: Cellular pERK Inhibition Assay, Method A (In-Cell Western). In kind it is cell-based. The following applies: Homo sapiens. The procedure, abridged:
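HCC827 cells in RPMI/10% FBS were treated with compounds in serum-free medium (0.2% DMSO final) at 37 °C for the indicated time, in quadruplicate. Fixed cells were immunostained for phospho-p44/42 ERK and read by infrared imaging. Blank-subtracted signal was expressed as % of DMSO control; IC50 from four-parameter logistic fit, averaged across experiments.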

Setting [3] is: Table 19, head prints unit as "-M".
Setting [4] is: Table 19, head prints unit as "-M", read-out: pERK (IC50) Method A.
The mark [5] stands for this setting: Table 20, read-out: pERK (IC50, μM) Method A.

SHP2, sequence (Q06124 whole entry): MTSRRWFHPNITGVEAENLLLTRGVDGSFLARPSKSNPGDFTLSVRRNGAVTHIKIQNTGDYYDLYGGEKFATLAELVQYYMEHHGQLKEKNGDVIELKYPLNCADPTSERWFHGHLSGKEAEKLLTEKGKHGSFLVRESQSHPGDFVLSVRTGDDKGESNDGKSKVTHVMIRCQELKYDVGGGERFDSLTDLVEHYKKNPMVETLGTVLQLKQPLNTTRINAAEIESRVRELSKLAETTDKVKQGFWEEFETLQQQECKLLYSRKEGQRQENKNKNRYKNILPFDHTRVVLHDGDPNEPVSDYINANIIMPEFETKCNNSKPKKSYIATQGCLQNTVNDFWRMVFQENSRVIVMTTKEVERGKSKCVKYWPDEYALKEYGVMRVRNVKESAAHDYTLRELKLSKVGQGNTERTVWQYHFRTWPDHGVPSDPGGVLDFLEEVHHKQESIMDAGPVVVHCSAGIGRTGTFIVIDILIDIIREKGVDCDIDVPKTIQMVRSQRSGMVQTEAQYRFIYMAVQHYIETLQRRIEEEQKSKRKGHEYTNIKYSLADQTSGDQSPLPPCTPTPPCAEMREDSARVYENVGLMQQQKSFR

For `CN(C)C(=O)Cc1nc2ccc(-c3c[nH]c4nc(N5C6CCCC5CNC6)n(C)c(=O)c34)c(Cl)c2s1` [Example 84, 2-(6-(2-(3,9-diazabicyclo[3.3.1]nonan-9-yl)-3-methyl-4-oxo-4,7-dihydro-3H-pyrrolo[2,3-d]pyrimidin-5-yl)-7-chlorobenzo[d]thiazol-2-yl)-N,N-dimethylacetamide], the values for the IC50 in test [1] (setting [3]) and in test [2] (setting [4]) were 18 nM and 0.55 µM, respectively.

As to `CCn1cc2c(Cl)c(-c3n[nH]c4nc(N5C[C@@H]6CC[C@H]5[C@H]6N)n(C)c(=O)c34)ccc2n1` (racemic) [Example 125, rac-6-((1S,4S,7S)-7-amino-2-azabicyclo[2.2.1]heptan-2-yl)-3-(4-chloro-2-ethyl-2H-indazol-5-yl)-5-methyl-1,5-dihydro-4H-pyrazolo[3,4-d]pyrimidin-4-one], the IC50 worked out at 17 nM in test [1] (setting [3]) and 0.26 µM in test [2] (setting [4]).

Consider `CCn1nc2ccc(-c3c[nH]c4nc(N5[C@H]6CC[C@@H]5[C@H](N)C6)n(C)c(=O)c34)c(Cl)c2c1CO` [Example 110, 2-((1R,2R,4S)-2-amino-7-azabicyclo[2.2.1]heptan-7-yl)-5-(4-chloro-2-ethyl-3-(hydroxymethyl)-2H-indazol-5-yl)-3-methyl-3,7-dihydro-4H-pyrrolo[2,3-d]pyrimidin-4-one], for which the IC50 in test [1] (setting [3]) is 14 nM; in test [2] (setting [4]), 1.7 µM.

As to `CCn1cc2c(Cl)c(-c3c[nH]c4nc(N5[C@@H]6CC[C@H]5C[C@H](N)C6)n(C)c(=O)c34)ccc2n1` [Example 4, 2-(exo-3-amino-8-azabicyclo[3.2.1]octan-8-yl)-5-(4-chloro-2-ethyl-2H-indazol-5-yl)-3-methyl-3,7-dihydro-4H-pyrrolo[2,3-d]pyrimidin-4-one], the IC50 in test [1] (setting [3]) came to 7.5 nM; in test [2] (setting [4]), 0.12 µM.

Turning to `CN(C)C(=O)Cn1nc2ccc(-c3c[nH]c4nc(N5C6CCCC5CNC6)n(C)c(=O)c34)c(Cl)c2c1Cl` [Example 82, 2-(5-(2-(3,9-diazabicyclo[3.3.1]nonan-9-yl)-3-methyl-4-oxo-4,7-dihydro-3H-pyrrolo[2,3-d]pyrimidin-5-yl)-3,4-dichloro-2H-indazol-2-yl)-N,N-dimethylacetamide], the IC50 in test [1] (setting [3]) was 14 nM; in test [2] (setting [4]), 0.91 µM.

As for `CN(C)C(=O)CCn1nc2ccc(-c3c[nH]c4nc(N5C6CCCC5CNC6)n(C)c(=O)c34)c(Cl)c2c1Cl` [Example 83, 3-(5-(2-(3,9-diazabicyclo[3.3.1]nonan-9-yl)-3-methyl-4-oxo-4,7-dihydro-3H-pyrrolo[2,3-d]pyrimidin-5-yl)-3,4-dichloro-2H-indazol-2-yl)-N,N-dimethylpropanamide], the IC50 in test [1] (setting [3]) stood at 11 nM; in test [2] (setting [4]) it was 0.19 µM.

For the compound `Cc1nc2ccc(-c3n[nH]c4nc(N5[C@H]6CC[C@@H]5[C@H](N)C6)n(C)c(=O)c34)c(Cl)c2s1` [Example 113, 6-((1R,2R,4S)-2-amino-7-azabicyclo[2.2.1]heptan-7-yl)-3-(7-chloro-2-methylbenzo[d]thiazol-6-yl)-5-methyl-1,5-dihydro-4H-pyrazolo[3,4-d]pyrimidin-4-one], the results for the IC50 in test [1] (setting [3]) and in test [2] (setting [4]) were 4.5 nM and 0.078 µM, respectively.

On to `Cn1nc2ccc(-c3n[nH]c4nc(N5[C@@H]6CC[C@H]5C[C@@H](N)C6)n(C)c(=O)c34)c(Cl)c2c1Cl` [Example 160, 6-(endo-3-amino-8-azabicyclo[3.2.1]octan-8-yl)-3-(3,4-dichloro-2-methyl-2H-indazol-5-yl)-5-methyl-1,5-dihydro-4H-pyrazolo[3,4-d]pyrimidin-4-one, hydrochloride salt], for which the IC50 was found to be 8.5 nM in test [1] (Table 20) and 0.23 µM in test [2] (setting [5]).

In the case of `Cn1cc2c(Cl)c(-c3c[nH]c4nc(N5C[C@H](N)[C@@H](F)C5)n(C)c(=O)c34)ccc2n1` [Example 52, 2-((3S,4S)-3-amino-4-fluoropyrrolidin-1-yl)-5-(4-chloro-2-methyl-2H-indazol-5-yl)-3-methyl-3,7-dihydro-4H-pyrrolo[2,3-d]pyrimidin-4-one], the IC50 came to 180 nM in test [1] (setting [3]) and 1.9 µM in test [2] (setting [4]).

Consider `Cn1cc2c(Cl)c(-c3c[nH]c4nc(N5[C@@H]6CC[C@H]5C[C@@](C)(N)C6)n(C)c(=O)c34)ccc2n1` [Example 16, 2-(endo-3-amino-3-methyl-8-azabicyclo[3.2.1]octan-8-yl)-5-(4-chloro-2-methyl-2H-indazol-5-yl)-3-methyl-3,7-dihydro-4H-pyrrolo[2,3-d]pyrimidin-4-one], for which the IC50 in test [1] (setting [3]) was 11 nM; in test [2] (setting [4]), 0.11 µM.

`CCN[C@@H]1C[C@@H]2CC[C@H]1N2c1nc2[nH]nc(-c3ccc4nn(C)c(Cl)c4c3Cl)c2c(=O)n1C` [Example 177, 3-(3,4-dichloro-2-methyl-2H-indazol-5-yl)-6-((1R,2R,4S)-2-(ethylamino)-7-azabicyclo[2.2.1]heptan-7-yl)-5-methyl-1,5-dihydro-4H-pyrazolo[3,4-d]pyrimidin-4-one]: the IC50 in test [1] (Table 20) amounted to 95 nM; in test [2] (setting [5]), 1.4 µM.

On to `Cn1cc2cc(-c3c[nH]c4nc(N5[C@@H]6CC[C@H]5C[C@@H](N)C6)n(C)c(=O)c34)c(F)cc2n1` [Example 72, 2-(endo-3-amino-8-azabicyclo[3.2.1]octan-8-yl)-5-(6-fluoro-2-methyl-2H-indazol-5-yl)-3-methyl-3,7-dihydro-4H-pyrrolo[2,3-d]pyrimidin-4-one], for which the IC50 came to 99 nM in test [1] (setting [3]) and 1.9 µM in test [2] (setting [4]).

`Cc1nc2ccc(-c3c[nH]c4nc(N5[C@@H]6CC[C@H]5C[C@@H](N)C6)n(C)c(=O)c34)c(Cl)c2o1` [Example 68, 2-(endo-3-amino-8-azabicyclo[3.2.1]octan-8-yl)-5-(7-chloro-2-methylbenzo[d]oxazol-6-yl)-3-methyl-3,7-dihydro-4H-pyrrolo[2,3-d]pyrimidin-4-one]: the results for the IC50 in test [1] (setting [3]) and in test [2] (setting [4]) were 41 nM and 0.67 µM, respectively.

For `Cn1cc2c(Cl)c(-c3c[nH]c4nc(N5CCC6(CCCCN6)CC5)n(C)c(=O)c34)ccc2n1` [Example 41, 5-(4-chloro-2-methyl-2H-indazol-5-yl)-3-methyl-2-(1,9-diazaspiro[5.5]undecan-9-yl)-3,7-dihydro-4H-pyrrolo[2,3-d]pyrimidin-4-one], the IC50 in test [1] (setting [3]) came to 57 nM; in test [2] (setting [4]), 1.8 µM.

Consider `Cn1cc2c(Cl)c(-c3c[nH]c4nc(N5C[C@H]6CC[C@@H](C5)[C@H]6N)n(C)c(=O)c34)ccc2n1` [Example 25, 2-(endo-8-amino-3-azabicyclo[3.2.1]octan-3-yl)-5-(4-chloro-2-methyl-2H-indazol-5-yl)-3-methyl-3,7-dihydro-4H-pyrrolo[2,3-d]pyrimidin-4-one], for which the IC50 in test [1] (setting [3]) was determined as 35 nM; in test [2] (setting [4]) it was 0.43 µM.

With `Cn1c(N2[C@@H]3CC[C@H]2C[C@@H](N)C3)nc2[nH]cc(-c3ccc4nn(CC(C)(C)O)cc4c3Cl)c2c1=O` [Example 75, 2-(endo-3-amino-8-azabicyclo[3.2.1]octan-8-yl)-5-(4-chloro-2-(2-hydroxy-2-methylpropyl)-2H-indazol-5-yl)-3-methyl-3,7-dihydro-4H-pyrrolo[2,3-d]pyrimidin-4-one], the IC50 in test [1] (setting [3]) was determined as 28 nM; in test [2] (setting [4]), 2.1 µM.

Regarding `Cn1nc2ccc(-c3c[nH]c4nc(N5[C@H]6CC[C@@H]5[C@](C)(N)C6)n(C)c(=O)c34)c(Cl)c2c1Cl` (racemic) [Example 173, rac-2-((1R,2R,4S)-2-amino-2-methyl-7-azabicyclo[2.2.1]heptan-7-yl)-5-(3,4-dichloro-2-methyl-2H-indazol-5-yl)-3-methyl-3,7-dihydro-4H-pyrrolo[2,3-d]pyrimidin-4-one], the IC50 is 2.5 nM in test [1] (Table 20) and 0.14 µM in test [2] (setting [5]).

Consider `Cn1cc2c(Cl)c(-c3c[nH]c4nc(N5CC6C(N)C6C5)n(C)c(=O)c34)ccc2n1` (centres unmarked) [Example 62, 2-(6-amino-3-azabicyclo[3.1.0]hexan-3-yl)-5-(4-chloro-2-methyl-2H-indazol-5-yl)-3-methyl-3,7-dihydro-4H-pyrrolo[2,3-d]pyrimidin-4-one], for which the IC50 worked out at 23 nM in test [1] (setting [3]) and 0.36 µM in test [2] (setting [4]).

As to `Cn1cc2c(Cl)c(-c3c[nH]c4nc(N5[C@H]6CC[C@@H]5[C@@H](N)C6)n(C)c(=O)c34)ccc2n1` (racemic) [Example 164, 2-(rac-(1R,2S,4S)-2-amino-7-azabicyclo[2.2.1]heptan-7-yl)-5-(4-chloro-2-methyl-2H-indazol-5-yl)-3-methyl-3,7-dihydro-4H-pyrrolo[2,3-d]pyrimidin-4-one], the IC50 in test [1] (Table 20) was 170 nM; in test [2] (setting [5]) it was 6.3 µM.

In the case of `Cn1cc2c(Cl)c(-c3c[nH]c4nc(N5C[C@H]6CC[C@@H]5[C@@H]6N)n(C)c(=O)c34)ccc2n1` (stereo in doubt) [Example 157, rel-2-((1R,4R,7R)-7-Amino-2-azabicyclo[2.2.1]heptan-2-yl)-5-(4-chloro-2-methyl-2H-indazol-5-yl)-3-methyl-3,7-dihydro-4H-pyrrolo[2,3-d]pyrimidin-4-one], the figures for the IC50 in test [1] (setting [3]) and in test [2] (setting [4]) were 3.7 nM and 0.022 µM, respectively.

Regarding `Cn1nc2ccc(-c3n[nH]c4nc(N5CC[C@H](N)[C@H](F)C5)n(C)c(=O)c34)c(Cl)c2c1Cl` [Example 162, 6-((3R,4S)-4-amino-3-fluoropiperidin-1-yl)-3-(3,4-dichloro-2-methyl-2H-indazol-5-yl)-5-methyl-1,5-dihydro-1H-pyrazolo[3,4-d]pyrimidin-4-one], the results for the IC50 in test [1] (Table 20) and in test [2] (setting [5]) were 42 nM and 0.81 µM, respectively.

Turning to `COc1cnc2ccc(-c3c[nH]c4nc(N5[C@H]6CC[C@@H]5[C@H](N)C6)n(C)c(=O)c34)c(Cl)c2n1` [Example 169, 2-((1R,2R,4S)-2-amino-7-azabicyclo[2.2.1]heptan-7-yl)-5-(5-chloro-3-methoxyquinoxalin-6-yl)-3-methyl-3,7-dihydro-4H-pyrrolo[2,3-d]pyrimidin-4-one], the IC50 turned out to be 3.3 nM in test [1] (Table 20) and 0.073 µM in test [2] (setting [5]).
